Source: BindingDB's records for doi:10.7270/Q2TX3CTT (Broad Institute, 2010)
Counter-ions that a name gives are not always drawn.

Target: Glycogen synthase kinase-3 beta (Homo sapiens, UniProt P49841)
Test: concentration-response blocking of human GSK3B – biochemical, luminescence, cell-free homogeneous, retest, dose response (AID 434954)

Glycogen synthase kinase-3 beta, sequence (P49841 whole entry): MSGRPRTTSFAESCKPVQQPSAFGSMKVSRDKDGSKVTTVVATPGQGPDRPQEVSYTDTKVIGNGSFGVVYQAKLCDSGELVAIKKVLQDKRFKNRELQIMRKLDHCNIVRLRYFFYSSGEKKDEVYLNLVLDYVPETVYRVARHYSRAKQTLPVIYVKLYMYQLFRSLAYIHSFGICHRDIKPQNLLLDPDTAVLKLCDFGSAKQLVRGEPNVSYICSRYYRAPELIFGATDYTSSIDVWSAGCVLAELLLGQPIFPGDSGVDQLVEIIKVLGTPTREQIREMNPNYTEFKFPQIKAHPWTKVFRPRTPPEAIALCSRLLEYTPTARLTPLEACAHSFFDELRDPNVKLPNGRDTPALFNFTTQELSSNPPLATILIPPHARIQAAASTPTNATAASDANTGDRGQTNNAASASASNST

SMILES	EC50
CCCN(CCC)Cc1c(C(=O)NN=Cc2ccc(Br)cc2)nnn1-c1nonc1N [1-(4-azanyl-1,2,5-oxadiazol-3-yl)-N-[(4-bromophenyl)methylideneamino]-5-[(dipropylamino)methyl]-1,2,3-triazole-4-carboxamide]	> 300 µM
O=C(CCC1COc2ccccc2O1)NCC1COc2ccccc2O1 (stereo unspecified)	> 300 µM
Cc1cc(C)n2nc(SCC(=O)N(CC(C)C)c3c(N)n(CC(C)C)c(=O)[nH]c3=O)nc2n1	> 300 µM
Cc1ccc2cc3c(NC(=O)C4CCCO4)nn(CC(C)C)c3nc2c1 (stereo unspecified) [SMR000148634]	> 300 µM
CCOC(=O)COn1c(=O)c(-c2cccs2)[n+]([O-])c2ccccc21	> 300 µM
CCOC(=O)c1nnn(CC(=O)Nc2cccc(OC)c2)c1C(=O)OCC	> 300 µM
COc1cccc(CNC(=O)C2CCN(S(=O)(=O)c3ccc(-n4cnnn4)cc3)CC2)c1 [SMR000600329]	> 300 µM
COc1ccc(Nc2nc(-c3ccccc3)c(C(=O)Nc3cccnc3)s2)cc1 [MLS001018742]	> 300 µM
CCCN(CCC)Cc1c(C(=O)NN=Cc2ccsc2)nnn1-c1nonc1N [SMR000620321]	4.13 µM
O=NCc1cn(-c2ccccc2)nc1-c1cccnc1 [N-[(1-phenyl-3-pyridin-3-ylpyrazol-4-yl)methylidene]hydroxylamine]	6.45 µM
CN1CCN(C(=O)Cn2ncc3c([nH]c4ccccc43)c2=O)CC1 [3-[2-(4-methylpiperazin-1-yl)-2-oxidanylidene-ethyl]-2H-pyridazino[4,5-b]indol-4-one]	> 300 µM
CCN(CC)C(=O)CSc1nc(N)c(C#N)c(-c2cccs2)c1C#N [SMR000115110]	> 300 µM
O=c1cc(-c2ccccc2Cl)oc2c([N+](=O)[O-])c(O)cc(O)c12 [MLS000518336]	2.58 µM
O=C(OCCCOC(=O)c1ccc(O)cc1)c1ccc(O)cc1 [4-hydroxybenzoic acid 3-[(4-hydroxyphenyl)-oxomethoxy]propyl ester]	1.84 µM
CC1(C)CC2CC(C)(CN2S(=O)(=O)c2ccc(C(=O)Nc3ccc(Cl)c(S(=O)(=O)N4CCOCC4)c3)cc2)C1 (stereo unspecified) [N-[4-chloro-3-(4-morpholinylsulfonyl)phenyl]-4-[(3,3,5-trimethyl-7-azabicyclo[3.2.1]octan-7-yl)sulfonyl]benzamide]	> 300 µM
COc1ccc(COC(=O)C2C(C)=NC(=O)NC2c2ccc(O)c(OC)c2)cc1 (stereo unspecified) [4-(4-hydroxy-3-methoxyphenyl)-6-methyl-2-oxo-3,4-dihydro-1H-pyrimidine-5-carboxylic acid (4-methoxyphenyl)methyl ester]	> 300 µM
O=C(COc1ccc(S(=O)(=O)N2CCCC2)cc1Cl)Nc1ccc2c(c1)OCO2 [MLS000052177]	> 300 µM
c1ccc2c(c1)OCC(CNCC1COc3ccccc3O1)O2 (stereo unspecified) [1-(2,3-dihydro-1,4-benzodioxin-3-yl)-N-(2,3-dihydro-1,4-benzodioxin-3-ylmethyl)methanamine]	> 300 µM
COCCCNc1nc(N)c([N+](=O)[O-])c(NC2CCCCC2)n1 [MLS001165157]	0.86 µM
COc1ccc(CCNc2nc(-c3ccc(O)cc3)cs2)cc1OC [SMR000502906]	> 300 µM
C=CCNC(=O)c1ccc(OC)cc1 [4-methoxy-N-prop-2-enylbenzamide]	> 300 µM
Cc1cc(-c2n[nH]c3c2C(c2cccc(O)c2)C(C#N)C(=N)O3)c(C)s1 (stereo unspecified) [SMR000136653]	25.4 µM

SMILES	EC50
CCN1CCN(CCCNC(=O)c2ccc3c(c2)NC(=O)c2ccccc2S3)CC1 [N-[3-(4-ethylpiperazin-1-yl)propyl]-6-oxo-5H-benzo[b][1,4]benzothiazepine-3-carboxamide]	> 300 µM
N#Cc1c(N)nc(C(C#N)C#N)c(C#N)c1-c1ccccc1	19.2 µM
CCn1c(SCC(=O)Nc2ccc(N(C)C)cc2)nnc1C1CC1 [SMR000601384]	> 300 µM
O=C(O)c1ccccc1N=NCc1ccnc2ccccc12	> 300 µM
C[C@@H]1O[C@@H](Oc2c(-c3cc(O)c(O)c(O)c3)oc3cc(O)cc(=O)c-3c2O)[C@H](O)[C@H](O)[C@H]1O [3-[(2S,3R,4R,5R,6S)-6-methyl-3,4,5-tris(oxidanyl)oxan-2-yl]oxy-5,7-bis(oxidanyl)-2-[3,4,5-tris(oxidanyl)phenyl]chromen-4-one]	> 300 µM
CCn1c(S)nnc1-c1ccc([N+](=O)[O-])cc1 [SMR000176027]	> 300 µM
COc1ccc(C(=O)c2sc(Nc3ccccc3)nc2C)cc1 [MLS001181792]	32.1 µM
CCC(O)CNc1nc(SC)nc2sc3c(c12)CCN(C)C3 (stereo unspecified)	1.75 µM
O=C(CS(=O)(=O)c1ccccc1)c1cc2ccccc2oc1=O [3-[2-(phenylsulfonyl)ethanoyl]chromen-2-one]	> 300 µM
Cc1ccc(C(=O)COC(=O)c2ccc(O)cc2)cc1	> 300 µM
CCn1nc(NC(=O)C2CCCO2)c2cc3cc(C)ccc3nc21 (stereo unspecified) [N-(1-ethyl-6-methyl-pyrazolo[3,4-b]quinolin-3-yl)oxolane-2-carboxamide]	> 300 µM
COc1ccc(C(=O)c2coc3ccc(O)c(CN(C)C)c23)cc1 [MLS000115878]	> 300 µM
Cc1nc(C)c(-c2csc(Nc3ccc(C(=O)O)c(O)c3)n2)s1 [4-[[4-(2,4-dimethyl-1,3-thiazol-5-yl)-1,3-thiazol-2-yl]amino]-2-hydroxybenzoic acid]	> 300 µM
Nc1ccccc1Nc1cc(-c2ccccc2)[nH]n1 [2-N-(5-phenyl-1H-pyrazol-3-yl)benzene-1,2-diamine]	> 300 µM
Nc1nonc1-n1nnc(C(=O)NN=Cc2ccc(Br)cc2)c1CN1CCOCC1 [SMR000646504]	> 300 µM
CCOC(=O)C1C(C)=Nc2ncnn2C1c1cc(Br)ccc1F (stereo unspecified) [ethyl 7-(5-bromo-2-fluorophenyl)-5-methyl-1,7-dihydro-[1,2,4]triazolo[1,5-a]pyrimidine-6-carboxylate]	24 µM
CN1C(=Cc2ccc(F)cc2)C(=O)N=C1N [(5Z)-2-azanyl-5-[(4-fluorophenyl)methylidene]-1-methyl-imidazol-4-one]	> 300 µM
O=c1cc(-c2ccccc2Cl)oc2cc(O)cc(O)c12 [2-(2-chlorophenyl)-5,7-dihydroxychromen-4-one]	1.67 µM
COc1ccc(OC)c(C(=O)c2coc3ccc(O)c(CN(C)C)c23)c1 [(2,5-dimethoxyphenyl)-[4-[(dimethylamino)methyl]-5-oxidanyl-1-benzofuran-3-yl]methanone;hydrochloride]	> 300 µM
Fc1ccc(CSc2nnc(-c3cccnc3)o2)cc1 [2-[(4-fluorophenyl)methylthio]-5-(3-pyridinyl)-1,3,4-oxadiazole]	> 300 µM
O=[N+]([O-])c1ccc2ccn(C3OCC(O)C(O)C3O)c2c1 (stereo unspecified) [SMR000283162]	> 300 µM
Cc1cc(NC(=O)/C=C/c2cccc(F)c2)n(-c2nc3ccccc3[nH]2)n1 [(E)-N-[2-(1H-benzimidazol-2-yl)-5-methylpyrazol-3-yl]-3-(3-fluorophenyl)prop-2-enamide]	> 300 µM

SMILES	EC50
O=C(O)/C=C/c1cccc2c1OCCO2 [(E)-3-(2,3-dihydro-1,4-benzodioxin-5-yl)-2-propenoic acid]	> 300 µM
O=C1NC(=Nc2ccccc2)SC1=Cc1ccccc1 [5-Benzylidene-2-phenylimino-thiazolidin-4-one]	> 300 µM
Cc1ccc(OCC(=O)N/N=C/c2ccc(O)c([N+](=O)[O-])c2)c([N+](=O)[O-])c1 [SMR000312577]	> 300 µM
O=C1CN=C(c2cccs2)c2c(sc3c2CCCC3)N1 [5-Thiophen-2-yl-1,2,3,4,7,9-hexahydro-10-thia-6,9-diaza-benzo[a]azulen-8-one]	3.09 µM
Cc1cc(OC(C)C)c2c(-c3ccccc3)cc(=O)oc2c1 [SMR000141385]	> 300 µM
COc1ccc(OC)c(Nc2nc(N)c([N+](=O)[O-])c(NC3CCCCC3)n2)c1 [N4-cyclohexyl-N2-(2,5-dimethoxyphenyl)-5-nitropyrimidine-2,4,6-triamine]	> 300 µM
O=C(CN1C(=O)CCC1=O)Nc1ccc2c3c(cccc13)CC2 [N-(1,2-dihydroacenaphthylen-5-yl)-2-(2,5-dioxo-1-pyrrolidinyl)acetamide]	> 300 µM
Cc1cc(NC(=O)CCC(=O)N(c2cccnc2)C(C(=O)NC2CCCC2)c2ccccc2F)no1 (stereo unspecified) [N'-[2-(cyclopentylamino)-1-(2-fluorophenyl)-2-oxoethyl]-N-(5-methyl-1,2-oxazol-3-yl)-N'-pyridin-3-ylbutanediamide]	> 300 µM
Nn1c(-c2cccs2)nc2sc3c(c2c1=O)CCCC3 [3-azanyl-2-thiophen-2-yl-5,6,7,8-tetrahydro-[1]benzothiolo[2,3-d]pyrimidin-4-one]	> 300 µM
Cc1ccc(-c2nn(-c3ccccc3)cc2CN=O)cc1 [N-[[3-(4-methylphenyl)-1-phenylpyrazol-4-yl]methylidene]hydroxylamine]	0.565 µM
COc1ccc(C(=O)ON=C(C)c2cccs2)cc1 [MLS000544771]	13.9 µM
CCCN(CCC)Cc1c(C(=O)NN=Cc2cccs2)nnn1-c1nonc1N	60 µM
CCn1c(SCC(=O)Nc2ccc(NC(C)=O)cc2)nnc1C1CC1 [N-(4-acetamidophenyl)-2-[(5-cyclopropyl-4-ethyl-1,2,4-triazol-3-yl)sulfanyl]ethanamide]	> 300 µM
Cc1ccc(CC(=O)Nc2ncc([N+](=O)[O-])s2)cc1 [2-(4-methylphenyl)-N-(5-nitro-1,3-thiazol-2-yl)acetamide]	28.8 µM
COc1ccc(CCNC(=O)C(C(=O)c2ccccc2)n2cc(Cl)ccc2=O)cc1OC (stereo unspecified) [2-(5-chloro-2-oxopyridin-1-yl)-N-[2-(3,4-dimethoxyphenyl)ethyl]-3-oxo-3-phenylpropanamide]	> 300 µM
NS(=O)(=O)c1ccc(CCNC(=O)C(=O)c2cn(CC(=O)N3CCCC3)c3ccccc23)cc1 [MLS001235966]	> 300 µM
CCCNc1nc(N)nc(-c2cc(Cl)ccc2OC)n1 [MLS000538216]	> 300 µM
Cc1cccc(-c2nnc(SCc3ccccc3)o2)c1 [MLS000067803]	> 300 µM
Cc1ccc(CN=Nc2ncnc3nc[nH]c23)cc1 [MLS000419179]	30.1 µM
O=Cc1cn(CCC(=O)O)nc1-c1cccc(Br)c1 [3-[3-(3-bromophenyl)-4-formylpyrazol-1-yl]propanoic acid]	> 300 µM
COc1cccc2cc(C(=O)Oc3ccccc3)c(=O)oc12 [MLS000999696]	> 300 µM
N=C(Cc1nc2ccccc2s1)NO [2-(1,3-benzothiazol-2-yl)-N'-oxidanyl-ethanimidamide]	> 300 µM
